For twelve compounds, Activity and Phytotoxicity results are on record in ChEMBL document CHEMBL3046418, “Synthesis and Herbicidal Activity of Sulfonylurea Compounds with Imidazo [1, 2-a] pyridine Moiety” (2001).

Molecules are shown by their SMILES.

What all share (type): functional
Assay [1] concerns Chenopodium album. Put plainly: Herbicidal activity against Chenopodium album after 3 weeks by post-emergence greenhouse test. Also on record: concentration or dose not given beside the values.
The test system of assay [2] is Stellaria media. Put plainly: Herbicidal activity against Stellaria media after 3 weeks by post-emergence greenhouse test. Also on record: concentration or dose not given beside the values.
Assay [3] relates to Mutarda arvensis. Put plainly: Herbicidal activity against Sinapis arvensis after 3 weeks by post-emergence greenhouse test. Also on record: concentration or dose not given beside the values.
Assay [4] concerns Matricaria chamomilla. Put plainly: Herbicidal activity against Matricaria chamomilla after 3 weeks by post-emergence greenhouse test. Also on record: concentration or dose not given beside the values.
For assay [5], the system named is Bromus tectorum. Put plainly: Herbicidal activity against Bromus tectorum after 3 weeks by post-emergence greenhouse test. Also on record: concentration or dose not given beside the values.
The test system of assay [6] is Avena fatua. Put plainly: Herbicidal activity against Avena fatua after 3 weeks by post-emergence greenhouse test. Also on record: concentration or dose not given beside the values.
In assay [7] the test system is Alopecurus myosuroides. Put plainly: Herbicidal activity against Alopecurus myosuroides after 3 weeks by post-emergence greenhouse test. Also on record: concentration or dose not given beside the values.
In assay [8] the test system is Triticum aestivum. Put plainly: Phytotoxic activity against Triticum aestivum (wheat) after 3 weeks by post-emergence greenhouse test. Also on record: concentration or dose not given beside the values.
Assay [9] has as its system Chenopodium album. Put plainly: Herbicidal activity against Chenopodium album after 4 weeks by pre-emergence greenhouse test. Also on record: concentration or dose not given beside the values.
The test system of assay [10] is Stellaria media. The experiment in a line: Herbicidal activity against Stellaria media after 4 weeks by pre-emergence greenhouse test. Also on record: concentration or dose not given beside the values.
Assay [11] relates to Matricaria chamomilla. Put plainly: Herbicidal activity against Matricaria chamomilla after 4 weeks by pre-emergence greenhouse test. Also on record: concentration or dose not given beside the values.
Assay [12] has as its system Mutarda arvensis. The experiment in a line: Herbicidal activity against Sinapis arvensis after 4 weeks by pre-emergence greenhouse test. Also on record: concentration or dose not given beside the values.
The subject of assay [13] is Bromus tectorum. Put plainly: Herbicidal activity against Bromus tectorum after 4 weeks by pre-emergence greenhouse test. Also on record: concentration or dose not given beside the values.
Assay [14] has as its system Alopecurus myosuroides. Put plainly: Herbicidal activity against Alopecurus myosuroides after 4 weeks by pre-emergence greenhouse test. Also on record: concentration or dose not given beside the values.
For assay [15], the system named is Avena fatua. Put plainly: Herbicidal activity against Avena fatua after 4 weeks by pre-emergence greenhouse test. Also on record: concentration or dose not given beside the values.
Assay [16] relates to Triticum aestivum. The experiment in a line: Phytotoxic activity against Triticum aestivum (wheat) after 4 weeks by pre-emergence greenhouse test.

With `CCS(=O)(=O)c1nc2ccccn2c1S(=O)(=O)NC(=O)Nc1nc(C)cc(C)n1`, the Activity is 51% in the assay with Chenopodium album [1]; 1% with Stellaria media [2]; 76% with Mutarda arvensis [3]; 1% in the assay on Matricaria chamomilla [4]; 51% in the assay on Bromus tectorum [5]; 51% in the assay on Avena fatua [6]. Besides, the Activity in the assay on Alopecurus myosuroides [7] is 51%; with Triticum aestivum [8], 1%; with Chenopodium album [9], 1%; with Stellaria media [10], 0%; in the assay with Matricaria chamomilla [11] it was 1%; in the assay on Mutarda arvensis [12], 51%. For the same compound, the results for the Activity in the assay with Bromus tectorum [13], in the assay with Alopecurus myosuroides [14] and in the assay with Avena fatua [15] were 1%, 0% and 0%, respectively. For the same compound, in the assay with Triticum aestivum [16], the Phytotoxicity is 0%.

For `CCS(=O)(=O)c1nc2ccccn2c1S(=O)(=O)NC(=O)Nc1nc(Cl)cc(OC)n1`, the Activity is given as 1% in the assay with Chenopodium album [1]; 1% in the assay with Stellaria media [2]; 100% in the assay on Mutarda arvensis [3]; 1% with Matricaria chamomilla [4]; 51% in the assay with Bromus tectorum [5]; 1% in the assay with Avena fatua [6]. Besides, the Activity worked out at 51% with Alopecurus myosuroides [7]; 0% in the assay with Triticum aestivum [8]; 0% with Chenopodium album [9]; 1% with Stellaria media [10]; 51% in the assay with Matricaria chamomilla [11]; 76% in the assay with Mutarda arvensis [12]. The values for the Activity with Bromus tectorum [13], in the assay on Alopecurus myosuroides [14] and in the assay with Avena fatua [15] were 1%, 1% and 0%, respectively. In the assay with Triticum aestivum [16], this compound gave a Phytotoxicity of 0%.

Consider `COc1cc(OC)nc(NC(=O)NS(=O)(=O)c2c(S(=O)(=O)c3ccccc3)nc3ccccn23)n1`, for which the Activity with Chenopodium album [1] turned out to be 0%; in the assay with Stellaria media [2], 1%; in the assay with Mutarda arvensis [3] it was 51%; in the assay with Matricaria chamomilla [4] it was 1%; in the assay with Bromus tectorum [5], 0%; in the assay on Avena fatua [6], 0%. Further, the Activity is 0% with Alopecurus myosuroides [7]; 0% in the assay on Triticum aestivum [8]; 0% in the assay with Chenopodium album [9]; 0% in the assay on Stellaria media [10]; 1% with Matricaria chamomilla [11]; 1% in the assay on Mutarda arvensis [12]. Also, the Activity with Bromus tectorum [13], in the assay on Alopecurus myosuroides [14] and in the assay with Avena fatua [15] was 0% throughout. This compound also returned a Phytotoxicity in the assay with Triticum aestivum [16] of 0%.

`COc1cc(OC)nc(NC(=O)NS(=O)(=O)c2c([S+]([O-])c3ccccc3)nc3ccccn23)n1` (configuration not stated): the Activity amounted to 0% in the assay with Chenopodium album [1]; 1% in the assay on Stellaria media [2]; 51% in the assay with Mutarda arvensis [3]; 1% with Matricaria chamomilla [4]; 1% in the assay on Bromus tectorum [5]; 0% in the assay on Avena fatua [6]. The Activity in the assay on Alopecurus myosuroides [7] was determined as 1%; in the assay with Triticum aestivum [8], 0%; in the assay on Chenopodium album [9], 0%; in the assay on Stellaria media [10], 0%; in the assay with Matricaria chamomilla [11] it was 1%; in the assay on Mutarda arvensis [12], 1%. Moreover, the Activity in the assay with Bromus tectorum [13], in the assay on Alopecurus myosuroides [14] and with Avena fatua [15] was 0% each time. The same compound came in with a Phytotoxicity in the assay with Triticum aestivum [16] of 0%.

Take `COc1cc(OC)nc(NC(=O)NS(=O)(=O)c2c(Sc3ccccc3)nc3ccccn23)n1`: the Activity in the assay with Chenopodium album [1] was found to be 0%; with Stellaria media [2], 1%; in the assay with Mutarda arvensis [3], 51%; in the assay on Matricaria chamomilla [4] it was 1%; with Bromus tectorum [5], 0%; with Avena fatua [6] it was 0%. Further, the Activity with Alopecurus myosuroides [7] worked out at 0%; with Triticum aestivum [8], 1%; with Chenopodium album [9], 0%; with Stellaria media [10], 0%; in the assay on Matricaria chamomilla [11] it was 51%; in the assay on Mutarda arvensis [12], 1%. The Activity in the assay on Bromus tectorum [13], in the assay on Alopecurus myosuroides [14] and in the assay with Avena fatua [15] was 0% each time. This compound had a Phytotoxicity in the assay with Triticum aestivum [16] of 0%.

As for `COc1cc(OC)nc(NC(=O)NS(=O)(=O)c2c(S(=O)(=O)C(C)C)nc3ccccn23)n1`, the Activity was 1% with Chenopodium album [1]; 76% with Stellaria media [2]; 51% in the assay on Mutarda arvensis [3]; 51% with Matricaria chamomilla [4]; 51% in the assay with Bromus tectorum [5]; 1% in the assay with Avena fatua [6]. The Activity in the assay with Alopecurus myosuroides [7] is on record as 88%; in the assay with Triticum aestivum [8], 0%; in the assay with Chenopodium album [9], 76%; in the assay on Stellaria media [10], 51%; in the assay with Matricaria chamomilla [11], 88%; with Mutarda arvensis [12], 88%. The Activity in the assay on Bromus tectorum [13] was found to be 51%; in the assay on Alopecurus myosuroides [14], 88%; in the assay with Avena fatua [15] it was 1%. Besides, the Phytotoxicity in the assay with Triticum aestivum [16] stood at 0%.

As for `COc1cc(OC)nc(NC(=O)NS(=O)(=O)c2c([S+]([O-])C(C)C)nc3ccccn23)n1` (configuration not stated), the Activity was 1% in the assay on Chenopodium album [1]; 1% in the assay on Stellaria media [2]; 1% with Mutarda arvensis [3]; 1% with Matricaria chamomilla [4]; 1% in the assay on Bromus tectorum [5]; 0% in the assay on Avena fatua [6]. Besides, the Activity is listed as 1% with Alopecurus myosuroides [7]; 0% in the assay on Triticum aestivum [8]; 0% in the assay with Chenopodium album [9]; 0% with Stellaria media [10]; 1% with Matricaria chamomilla [11]; 1% with Mutarda arvensis [12]. The Activity in the assay with Bromus tectorum [13], in the assay on Alopecurus myosuroides [14] and in the assay with Avena fatua [15] was 0% in each case. Besides, in the assay with Triticum aestivum [16], the Phytotoxicity turned out to be 0%.

Regarding `COc1cc(OC)nc(NC(=O)NS(=O)(=O)c2c(SC(C)C)nc3ccccn23)n1`, the Activity is given as 1% with Chenopodium album [1]; 1% with Stellaria media [2]; 51% with Mutarda arvensis [3]; 51% in the assay with Matricaria chamomilla [4]; 1% in the assay on Bromus tectorum [5]; 0% with Avena fatua [6]. The Activity with Alopecurus myosuroides [7] is listed as 1%; in the assay with Triticum aestivum [8], 0%; in the assay on Chenopodium album [9] it was 1%; with Stellaria media [10], 0%; with Matricaria chamomilla [11], 88%; in the assay with Mutarda arvensis [12] it was 1%. Moreover, the Activity in the assay with Bromus tectorum [13], with Alopecurus myosuroides [14] and in the assay on Avena fatua [15] was 0% each time. Besides, the Phytotoxicity with Triticum aestivum [16] is on record as 0%.

Take `CCCS(=O)(=O)c1nc2ccccn2c1S(=O)(=O)NC(=O)Nc1nc(OC)cc(OC)n1`: the Activity stood at 0% in the assay on Chenopodium album [1]; 76% in the assay on Stellaria media [2]; 76% with Mutarda arvensis [3]; 51% with Matricaria chamomilla [4]; 51% in the assay with Bromus tectorum [5]; 1% in the assay with Avena fatua [6]. For the same compound, the Activity with Alopecurus myosuroides [7] is 76%; with Triticum aestivum [8], 0%; in the assay on Chenopodium album [9], 0%; in the assay with Stellaria media [10] it was 76%; in the assay on Matricaria chamomilla [11] it was 88%; in the assay with Mutarda arvensis [12] it was 51%. The Activity turned out to be 1% in the assay on Bromus tectorum [13], 76% in the assay with Alopecurus myosuroides [14] and 0% in the assay on Avena fatua [15]. Further, the Phytotoxicity in the assay with Triticum aestivum [16] was determined as 0%.

Consider `CCC[S+]([O-])c1nc2ccccn2c1S(=O)(=O)NC(=O)Nc1nc(OC)cc(OC)n1` (configuration not stated), for which the Activity with Chenopodium album [1] turned out to be 1%; in the assay with Stellaria media [2], 51%; in the assay with Mutarda arvensis [3], 51%; in the assay with Matricaria chamomilla [4] it was 1%; in the assay on Bromus tectorum [5] it was 1%; in the assay with Avena fatua [6], 0%. Besides, the Activity was determined as 1% in the assay with Alopecurus myosuroides [7]; 0% with Triticum aestivum [8]; 0% in the assay with Chenopodium album [9]; 0% in the assay with Stellaria media [10]; 76% in the assay with Matricaria chamomilla [11]; 1% with Mutarda arvensis [12]. The Activity in the assay with Bromus tectorum [13], in the assay with Alopecurus myosuroides [14] and in the assay on Avena fatua [15] was 0% each time. In the assay on Triticum aestivum [16], this compound registered a Phytotoxicity of 0%.

On to `CCCSc1nc2ccccn2c1S(=O)(=O)NC(=O)Nc1nc(OC)cc(OC)n1`, for which the Activity with Chenopodium album [1] is on record as 0%; with Stellaria media [2], 1%; in the assay on Mutarda arvensis [3], 51%; in the assay on Matricaria chamomilla [4], 0%; in the assay on Bromus tectorum [5], 1%; in the assay with Avena fatua [6] it was 0%. Further, the Activity with Alopecurus myosuroides [7] came out at 1%; in the assay on Triticum aestivum [8] it was 0%; in the assay with Chenopodium album [9] it was 0%; in the assay with Stellaria media [10] it was 0%; in the assay with Matricaria chamomilla [11], 88%; with Mutarda arvensis [12], 1%. Also, the results for the Activity with Bromus tectorum [13], in the assay with Alopecurus myosuroides [14] and in the assay with Avena fatua [15] were 0%, 1% and 0%, respectively. Also, in the assay on Triticum aestivum [16], the Phytotoxicity turned out to be 0%.

As for `CC[S+]([O-])c1nc2ccccn2c1S(=O)(=O)NC(=O)Nc1nc(OC)cc(OC)n1` (configuration not stated), the Activity is reported as 1% with Chenopodium album [1]; 1% in the assay with Stellaria media [2]; 51% in the assay on Mutarda arvensis [3]; 76% with Matricaria chamomilla [4]; 51% in the assay with Bromus tectorum [5]; 0% in the assay with Avena fatua [6]. Also, the Activity is 1% in the assay with Alopecurus myosuroides [7]; 0% in the assay on Triticum aestivum [8]; 1% with Chenopodium album [9]; 1% with Stellaria media [10]; 88% with Matricaria chamomilla [11]; 1% in the assay with Mutarda arvensis [12]. For the same compound, the figures for the Activity with Bromus tectorum [13], in the assay on Alopecurus myosuroides [14] and with Avena fatua [15] were 0%, 1% and 0%, respectively. The compound also gave a Phytotoxicity in the assay with Triticum aestivum [16] of 0%.
